Legend:
[1] = tested on: VEGF; settings: positive CTX control group, OD at 450 nm
Procedure: Before taking tumors out, blood was collected by eye bleeding from mice in the four groups, i.e. the negative control group, the positive CTX control group, the high dose (32 mg/kg) group and the low dose (16 mg/kg) group.
1.1 Preparing reagents, samples and standards;
1.2 Adding the prepared samples and standards, and reacting for 90 minutes at 37° C.;
1.3 Washing the plate twice, adding biotinylated antibody working solution, and reacting for 60 minutes at 37° C.;
1.4 Washing the plate for three times, adding ABC working solution, and reacting for 30 minutes at 37° C.;
1.5 Washing the plate for five times, adding TMB color liquid, and reacting in dark for 15 minutes at 37° C.;
1.6 Adding TMB stop solution, and measuring OD value at 450 nm.

[2] = tested on: mouse sarcoma cells S180; settings: 0.02 g/(Kg.d) i.p.
Procedure: (§1) Ascites mice S180 and H22 that had been vaccinated 7 days were sacrificed by cervical, from which ascites were obtained under sterile conditions respectively; the obtained ascites were washed twice with culture medium RPMI1640, and prepared to a 2×10^7/ml suspension in sterile physiological saline. The suspension of cell S180 was inoculated subcutaneously in the right axillas of 40 mice (0.1 ml/mouse) to produce solid tumor models; while the suspension of cell H22 was inoculated in abdominal cavities of 40 mice (0.2 ml/mouse) by conditional means under sterile conditions to produce ascites tumor models.
(§2) 90 mice were randomly divided into 9 groups of 3 types, wherein the first type group was a normal control group, the second type groups were S180 solid tumor groups including a positive (cyclophosphamide) control group, a negative control group, a low dose group and a high dose group, and the third type groups were H22 ascites groups including a positive (cyclophosphamide) control group, a negative control group, a low dose group and a high dose group. There were 10 mice in each group. The experiment was repeated for three times.
(§3) […], the negative control group was injected same volume of corn oil, and the positive control group was injected cyclophosphamide injection solution with the dose of 0.02 g/(Kg.d). The used injection volume was 0.1 ml/mouse and the injection was given as intraperitoneal injection every other day for 15 days. During the 15 days, general activities, fur, feces, etc. of the mice were daily observed. 24 hours after the last administration, mice that had been inoculated subcutaneously with S180 were sacrificed by cervical, from which tumors, thymus and spleen were taken out. After the last administration, mice that had been inoculated in abdominal cavities with H22 were conventionally bred continually, weighted and observed the survival time every day until all the mice in the negative group were dead.
(§4) After finishing the administration in all mice in the solid tumor group, the mice were sacrificed and their spleens and livers were weighed by electronic balance. The spleen index was equivalent to the spleen weight (mg) of mice in each group divided by the weight of the mice, while the liver index was equivalent to the liver weight […] divided by the weight (g) of the mice.
On the next day after drug withdrawal, the mice in the solid-tumor […] group were weighed and sacrificed by cervical, wherein the serum was collected by eye bleeding for later use in subsequent experiments. Tumor tissues were dissected and weighed by electronic balance. The tumor inhibition rate was calculated as follows. Tumor Inhibition Rate(%)=[(mean tumor weight of negative control group−mean tumor weight of treatment group)/mean tumor weight of control group]×100%

[3] = tested on: mouse hepatoma cells H22; settings: 0.02 g/(Kg.d) i.p.
Procedure: as §1, §2, §3
24 hours after the inoculation of ascites, the weight and the amount of abdominal circumference of the mice in the groups of ascites models were measured. The drug administration and breeding were continued according to different groups, the weight and the abdominal circumference were measured daily until one day before death. The weight increase (g) and abdominal-circumference increase (cm) were calculated. The experiment started on the day of tumor inoculation and ended on the day when all the mice in the negative control group were dead; the time of deaths were recorded, and the survival extending rate was calculated. Survival Extending Rate(%)=[(mean survival days of treatment group−mean survival days of negative control group)/mean survival days of control group]×100%
as §4

[4] = tested on: CAM vessels; assay: CAM assay, effect on tumor angiogenesis; format: in vivo, German Roman embryonated eggs; settings: 4 ug/embryo, 72 hours incubation
Procedure: A sterile gelatin sponge, previously made into disks with diameter of 5 mm by a hole puncher, was used as sample carrier. […] There were 3 dose groups, wherein 5 μl (low dose group, with a dose volume of 2 μg/embryo), 10 μl (middle dose group, with a dose volume of 4 μg/embryo), and 20 μl (high dose group, with a dose volume of 8 μg/embryo) of the solution were added respectively into gelatin sponge slices by a quantitative liquid transfer. The sponge slices were dried in the sterile environment.
A sterilized egg was placed into a 37° C. incubator with its air chamber upward. In the 7th day, the embryo was positioned on a super-clean bench and sterilized by ethanol, and then it was drilled by a dental drill to form a little hole in the top of the embryo. Egg shell and shell membrane around the hole were carefully removed to form an opening of about 1.2 cm×1.2 cm; after determining a sample-adding site, the air chamber membrane was carefully pricked at the separation place between the chamber and the yolk by a syringe needle; through the prick hole 1-2 drops of sterilized water was injected, which made the chamber membrane and the CAM membrane be separated; after gently removing the upper layer of the chamber membrane with forceps, the CAM membrane in the lower layer was exposed.
A drug-containing carrier was placed, at the junction area of the CAM membrane and the yolk sac membrane, on a site where vessels were less, and then sealed with sterilized transparent adhesive tape to continue to incubate for 72 hours.
After the incubation, the transparent adhesive tape stopped on the top of the air chamber was gently removed by forceps; a mixture of methanol/acetone (1:1, 1-2 ml) was gently added; the room temperature was remained constant for 10 minutes. Then, the CAM membrane was carefully peeled off and placed on a glass slide for observing and taking photos. The effect of the compound on angiogenesis was assessed by counting the numbers of large, middle, small blood vessels radiated by the carrier.

O=P1(N(CCCl)CCCl)NCCCO1 (stereo not shown) [Cyclophosphamide, reference compound]
OD value of serum VEGF [1]: 0.2205 ± 0.0238
Liver index (100 g/g) ([2]; S180 mice): 3.09 ± 0.31^(1)(4) 100 g/g
Spleen index (mg/g) ([2]; S180 mice): 2.76 ± 0.64^(1)(4) mg/g
Tumor inhibition rate (%) ([2]; S180 sarcoma mice): 62.63%
Tumor weight (g) ([2]; S180 sarcoma mice): 0.518 ± 0.231^(4) g
Weight increase (g) ([2]; S180 sarcoma mice): 4.76 ± 1.01^(1)(3) g
Abdominal circumference increase (cm) ([3]; H22 ascites mice): 2.30 ± 0.66^(2)(4) cm
Survival extending rate (%) ([3]; H22 ascites mice): 57.73%
Survival time (day) ([3]; H22 ascites mice): 15.3 ± 1.06^(4) day
Weight increase (g) ([3]; H22 ascites mice): 3.42 ± 1.67^(2)(4) g
Weight increase ([3]; H22 ascites mice, listed as cyclophosphamide): 3.42 g
Liver index (100 g/g) ([3]; ascites mice): 3.26 ± 0.27^(1)(4) 100 g/g
Spleen index (mg/g) ([3]; ascites mice): 2.45 ± 0.34^(1)(4) mg/g

Cc1ccc(C(=O)Nc2ccc(S(=O)(=O)O)c3cc(S(=O)(=O)O)cc(S(=O)(=O)O)c23)cc1NC(=O)c1cccc(NC(=O)Nc2cccc(C(=O)Nc3cc(C(=O)Nc4ccc(S(=O)(=O)O)c5cc(S(=O)(=O)O)cc(S(=O)(=O)O)c45)ccc3C)c2)c1 [Suramin, reference compound]
Large vessels (number of the vessels) [4]: 3.6 ± 2.0
Middle vessels (number of the vessels) [4]: 12.4 ± 3.8
Small vessels (number of the vessels) [4]: 6.1 ± 3.0

From patent US8853194B2, “Sterol derivatives and their synthesis and use” (priority 2009, dated 2014)
